According to patent US20230181539A1, “METHODS FOR THE TREATMENT OF CORONAVIRUS INFECTIONS” (INSERM (INSTITUT NATIONAL DE LA SANTÉ ET DE LA RECHERCHE …, priority 2020, published 2023):
Where two headings read alike, the source gives them in different places.

Tested on: SARS-CoV-2 strain BavPat1
Assay: Determination of EC50 and EC90: inhibition of SARS-CoV-2 viral RNA replication in Vero E6 cells (RT-qPCR)
Format: cell-based
Conditions: Severe acute respiratory syndrome coronavirus 2, Vero C1008, 48 h, read-out: EC50 (compound concentration required to inhibit viral RNA replication by 50%)

Row | Compound | EC50 (Vero E6 cells, MOI 0.002, 2 days of culture, viral RNA in supernatant) [nM] | EC50 [nM]
1 | CCn1c(CO)nn(-c2cc(O[C@@H](C)C(F)(F)F)c(C(=O)Nc3c(F)cccc3Cl)cc2F)c1=O [BAY-2402234, N-(2-Chloro-6-fluorophenyl)-4-[4-ethyl-3-(hydroxymethyl)-5-oxo-1,2,4-triazol-1-yl]-5-fluoro-2-[(2S)-1,1,1-trifluoropropan-2-yl]oxybenzamide] | < 40 | –
2 | CCC(CC)COC(=O)[C@H](C)N[P@](=O)(OC[C@H]1O[C@@](C#N)(c2ccc3c(N)ncnn23)[C@H](O)[C@@H]1O)Oc1ccccc1 [remdesivir, Remdesivir] | – | 2700
